# Laboratory results reported in patent US20250228841A1, “COMPOSITIONS AFFECTING PIGMENT PRODUCTION AND METHODS FOR TREATMENT OF BACTERIAL DISEASES” (Aptorum Therapeutics Limited, priority 2024, published 2025).
# What was measured:
# [1] = Solubility in solutions simulating gastric juice and intestinal fluid; format: physicochemical
# Description: The following table (Table 4) illustrates the solubility of two different compounds, NP16-XL-016 (hereinafter as “IM032”) and NP16-XL-061 (hereinafter as “IM032-C1”), in two solutions with different pH values simulating the pH of gastric juice and human intestinal fluid using HCl and phosphate buffer respectively.
# [2] = system: S. aureus COL; experiment: Bactericidal activity of human polymorphonuclear leukocytes (neutrophil killing); format: cell-based, Staphylococcus aureus; details: NP16-treated S. aureus COL
# Protocol: The killing of S. aureus by human polymorphonuclear leukocytes (PMNs) was determined as previously described, with some modifications. Briefly, PMNs (10^6) were mixed with ˜10^7 opsonized S. aureus bacteria MOI=10 in 24-well tissue culture plates. After centrifuged at 380 g for 8 min, plates were incubated at 37° C. for up to 1.5 h. PMNs were lysed with saponin (20 min on ice) and plated on BHIA plates. The percent survival was calculated by normalized with time zero. Statistics were performed with the Student's t-test (GraphPad Prism).
# [3] = system: clinical isolate S. aureus strain AE052; experiment: Murine intraperitoneal infection model, kidney CFU; format: in vivo, Staphylococcus aureus
# Protocol: (§1) For other S. aureus sub-type, eight-to ten-week-old female BALB/c mice were injected intraperitoneally (i.p) with 4×10^8 CFUs of early stationary phase S. aureus COL. After 3 d, animals were euthanized, the liver and spleen were isolated, homogenized in PBS, and plated on to obtain viable counts. For the treatment study, mice were randomized into two groups at the start of the experiment and administered, i.p., either 0.35 mg of NP16 or PBS with 5% Tween-80 as a control, twice per day, starting on d-1 to d 2 (a total of eight doses for each). Intraperitoneal challenge with 4×10^8 CFUs of early stationary phases S. aureus COL was performed on d 0. The mice were sacrificed on d 3 for enumeration of bacterial CFUs in liver and spleen homogenates.
# For the clinical isolate S. aureus strain AE052, all operations were similar to those used for the COL strain, except 10^8 CFUs of early stationary phase bacteria were used in the infection model, and kidneys were collected for monitoring bacterial loads. Statistics were performed using the Student's t-test (GraphPad Prism).
# [4] = system: MDCK cells; experiment: Cytotoxic activity on MDCK cells; format: cell-based
# [5] = system: non-pigmented strain RN6390; experiment: Hydrogen peroxide susceptibility assay, non-pigmented strain; format: cell-based, Staphylococcus aureus
# Protocol: (§2) S. aureus was grown in BHI with or without NP16 (40 μM). After 2 days, bacteria were washed twice in PBS, diluted to a concentration of 1×10^7 CFUs per 100 μl reaction mixture in a 96-well plate. Hydrogen peroxide (H2O2) in PBS was added to a 440 mM final concentration, and the plate was incubated for 1 hr at 37° C. with shaking. The reaction was stopped by the addition of 1,000 U/ml of exogenous catalase (Sigma-Aldrich, St. Louis, MO), and bacterial viability was assessed by plating dilutions on BHI agar plates.
# [6] = system: S. aureus COL; experiment: Murine intraperitoneal infection model, liver and spleen CFU; format: in vivo, Staphylococcus aureus; details: BALB/c mice, i.p. S. aureus COL; 0.35 mg twice per day (days -1, 0, 1 and 2); 72 hours; P<0.01
# Protocol: as §1
# [7] = system: S. aureus COL; experiment: Hydrogen peroxide susceptibility assay; format: cell-based, Staphylococcus aureus; details: S. aureus COL grown with NP16 (40 μM); 440 mM H2O2, 1 hr
# Protocol: as §2
# [8] = system: methicillin-resistant S. aureus (MRSA); experiment: Mouse MRSA skin infection model, wound closure; format: in vivo, Staphylococcus aureus
# Description: Visual wound healing/closure in different treatment groups of mice can be observed in FIG. 11B.
# [9] = system: 10 different Staphylococcus aureus (S. aureus) strains; experiment: Inhibition of staphyloxanthin production by IM032 in different S. aureus strains (overall); format: cell-based; details: any concentration of IM032 (up to 4,000 nM)
# Protocol: Compound IM032 was evaluated for its in vitro efficacy to inhibit staphyloxanthin production in 10 different Staphylococcus aureus (S. aureus) strains, SH1000, HG003, ATCC29213, ATCC700698, COL, JE2, LAC, USA300-3, Newman and ST239III.
# The test item was dissolved at 44.9 mg/mL in DMSO at 37° C., aliquoted into several tubes, and stored at −20° C. until use. On the day of testing, a stock solution was serially diluted to testing concentrations with DMSO. All solutions were vortexed and mixed with a pipette to achieve homogeneity immediately before dilution. A correction factor for purity was not applied to the test item preparations.
# Each test item solution (6 μL) was combined with 0.6 mL of S. aureus culture in brain heart infusion broth (CFU per well=1×10^7). 12-wells repeats were performed for each concentration in 96-well 2-mL plates. The plates were then incubated in a shaker at 37° C., 250 rpm for 24 hours. […] After centrifugation, 100 μL of supernatant was transferred to a 96-well cell culture plate and OD450 was measured. The relative pigment production at each tested concentration was calculated as follows: […]
# The IC50 for each test was determined based on the calculated inhibition ratio from above with Prism 6.0 by employing a non-linear regression (four parameters) fitting method with assigned bottom and top at 0.05 and 0.95 respectively. […]
# [10] = system: MRSA USA 300 ATCC BAA-1717; experiment: Mouse (LD0-20) bacteremia model, bacterial counts in organs; format: in vivo, Staphylococcus aureus; details: BALB/c mice, IV MRSA USA 300 ATCC BAA-1717; IM032 0.3-30 mg/kg PO BID 7 days; Day 7
# Protocol: A bacterial strain, USA 300 MRSA BAA-1717, was used to infect BALB/c (female). Test animals were intravenously (IV) inoculated with MRSA ATCC BAA-1717 at a target density of 1×10^6 CFU/mouse. Test substance, IM032 at 0, 0.3, 1, 3, 10, and 30 mg/kg, was administered orally (PO) twice daily (BID) for a total of 7 dosing days.
# The reference agents, vancomycin at 3 mg/kg was administered IV once (QD) at 1 h after infection for 7 consecutive days.
# With reference to FIG. 9, the animals were IV inoculated with MRSA USA 300 ATCC BAA-1717 at 1.02×10^6 CFU/mouse. IM032 at 0.3, 1, 3, 10, and 30 mg/kg were orally (PO) administrated twice daily (BID) at 1 and 7 h after the infection on Day 1, and then twice daily at 6-hour intervals in the next 6 days for a total of 7 days of dosing. Vancomycin, at 3 mg/kg, was administered intravenously (IV) at 1 h after the infection on Day 1 and then once a day in the next 6 days for a total of 7 days of dosing. All the test animals in the IM032 treatment, reference vancomycin and the vehicle control groups were sacrificed at 168 hours (Day 7) after the infection. […] Statistical significance compared to the respective vehicle control was determined by unpaired student t-tests. […]
# With reference to FIG. 10, bacterial density in lung and liver were determined. […] Statistical significance compared to the respective vehicle control was determined by unpaired student t-tests. […]
compound,measurement,setting,value
"O=C(/C=C/c1ccccc1Cl)Nc1ccc(S(=O)(=O)N2CCCCC2)cc1 [IM032-Cl, 3-(6-chlorophenyl)-N-[4-(1-piperidine-1-sulfonyl)phenyl] acrylamide]",Solubility in pH 2 (0.1N HCl + 0.1% Tween 80) - simulating human stomach,[1]; pH 2,<LOQ
"O=C(/C=C/c1ccccc1)Nc1ccc(S(=O)(=O)N2CCCC2)cc1 [NP16, 3-phenyl-N-[4-(1-pyrrolidinyl-sulfonyl)phenyl]acrylamide]",susceptibility to killing by neutrophils,[2],increased susceptibility
same,mice with kidney bacterial counts below the detection threshold,"[3]; AE052 infection, n=10, control group 2 of 10",6 of 10
same,bacterial counts in the kidneys versus control group,"[3]; mice infected with AE052, 0.35 mg twice per day, P<0.001",significantly lower
same,effect on the growth of MDCK cells (cytotoxic activity),[4],no effect
same,susceptibility to hydrogen peroxide killing irrespective of treatment,[5],similar
same,bacterial counts in the livers and spleens versus control group,[6],significantly lower
same,susceptibility to killing by hydrogen peroxide,[7],increased susceptibility
"O=C(/C=C/c1ccccc1Br)Nc1ccc(S(=O)(=O)N2CCCCC2)cc1 [NP16-XL-016, 3-(6-bromophenyl)-N-[4-(1-piperidine-1-sulfonyl)phenyl] acrylamide]",wound healing compared with 2% Mupirocin and Linezolid,[8]; oral 30 mg/kg twice a day,statistically significant improvement
same,visual wound healing (observed size of the closure) among the three groups,"[8]; oral BID for 7 days, FIG. 11B",best visual wound healing
same,bactericidal effect (reduction in optical density),[9],not observed
same,solubility in two biorelevant media relative to IM032-C1,"[1]; pH 2 and pH 7.4, fold higher than IM032-C1",> 20 ×
same,bacteria count across major organs,[10],statistically significant reduction
